Consider six molecules from US20020165270A1, “Use of a pharmaceutical composition for treating and/or preventing ischemia” (priority 1997, published 2002).

Assay [1] relates to mitochondria isolated from the livers of untreated rats. Kind of assay: RCR of mitochondria isolated from livers of untreated rats, preincubated one hour with the medicaments. Type of assay: biochemical, rat. The conditions noted are these: for way in which the RCR is increased (class I / class II): liver mitochondria of untreated rats preincubated for one hour; for Protective effect on the RCR (%): class I molecules, final concentrations: Ginkor Fort 0.3 mg/ml, Bilobalide 0.8 μg/ml, Reparil 75 ng/ml, Naphthoquinone 10^−7 M, Praxilene 10^−7 M, one hour preincubation. The procedure:
(§1) Different concentrations of active compounds of the invention (bilobalide) were tested on the RCR of the mitochondria which were isolated from rat brains. Five concentrations were employed: 4, 6, 8, 10 and 12 mg/kg of treated patient (rat). The rats were given these doses of bilobalide orally for 14 days. The mitochondria were isolated using the method described by Nowicki et al. (J. Cerebral Blood Flow and Metabolism, 2, pp. 33-40 (1982)). The respiration of the mitochondria is measured in a Clark oxygen electrode which is connected to a recording device. The RCR represents the respiratory control. It denotes the ratio between the consumption of oxygen in the presence of endogenous substrates (glutamate/malate) and the consumption after the ADP has been phosphorylated to ATP. This technique was developed by Chance and Williams (Nature, 175, pp. 1120-1121 (1955)). A dosedependent effect is obtained, with an increase of the RCR, of 3.7 in the case of the controls, to an RCR of 4.6 in the case of the 8 and 10 mg/kg concentrations. A maximum increase of 24% is obtained at 10 mg/kg.
Each of the active compounds of the invention can, like bilobalide, increase the RCR of mitochondria which have been isolated from the livers of untreated rats when the mitochondria are preincubated for one hour in the presence of these medicaments. The active compounds can therefore act directly on the mitochondria.

Assay [2] deals with liver mitochondria. Kind of assay: RCR of liver mitochondria after 10 minute ischemia of the perfused liver. Type of assay: in vivo, rat. Conditions: 8 mg/kg per os for 14 days; 10 minute liver ischemia, perfusion medium with 8 mg of bilobalide/l; controls 3.73. The procedure:
(§2) The active compound of the invention (bilobalide) was administered per os to rats for 14 days at concentrations of 8 mg/kg of patient (rat). The liver mitochondria of these rats were isolated using the method described by Remacle (J. Cell. Biol. 79, 291, 1978). […] A 10 minute ischemia was performed on the livers by perfusion in a medium consisting of 0.137 M NaCl, 5.4 mM KCl, 0.8 mM MgSO4, 11 mM glucose, 0.34 mM Na2HP03, 24.4 mM NaHCO3, 6.35 mM KH2PO4 and 8 mg of bilobalide/l. The medium is first of all degassed under an atmosphere containing 95% N2 and 5% CO2. The mitochondria are isolated and their respiratory activity is determined.
For the controls, the rats were given water for 14 days and the livers were perfused with the same solution as for the tests.

For assay [3], the system named is brain mitochondria. The assay can be described thus: RCR of brain mitochondria of orally treated rats, normal conditions. It is filed as in vivo, rat. The procedure: as §1
For assay [4], the system named is complex I of the mitochondria. Kind of assay: Protection of complex I inhibited by Amytal, measured via the RCR. It is filed as biochemical. The conditions noted are these: for Protection of complex I (%): complex I 58% inhibited by 0.5 mM Amytal, 60 minute incubation, Ginkor Fort 0.3 mg/ml, Bilobalide 0.8 μg/ml, Reparil 75 ng/ml, Nafthoquinone 10^−7 M, Praxilene 10^−7 M, no medicament = 0%. The procedure:
(§3) The process of the oxidative phosphorylation of ATP is a complex process which involves different enzyme complexes or electron transporters, which generate a proton gradient (complexes I, III and IV), ATP synthases (complex V), which is directly responsible for synthesizing ATP, and adenine translocase, which is the transporter which is required for importing ADP and exporting ATP (FIG. 4).
Complex I of the mitochondria was 58% inhibited by the presence of 0.5 mM Amytal. Under these conditions, the presence of the molecules at the indicated concentrations (60 minute incubation) results in an inhibition which is markedly less pronounced, with this having been expressed in percentage protection as compared with the mitochondria without medicament, which are regarded as having 0% protection.

Assay [5] concerns complex III of the mitochondria. Kind of assay: Protection of complex III inhibited by a specific inhibitor, measured via the RCR. Type of assay: biochemical. Conditions: Ginkor Fort 0.3 mg/ml, Bilobalide 0.8 μg/ml, Reparil 75 ng/ml, Nafthoquinone 10^−7 M, Praxilene 10^−7 M.
From the text: as §3

For assay [6], the system named is brain mitochondria. The assay can be described thus: RCR of brain mitochondria of treated rats after 15 minute ischemia. Type of assay: in vivo, rat. The conditions noted are these: 10 mg/kg per os for 14 days; 15 minute ischemia by decapitation; glutamate/malate; controls 3. On the procedure:
A 15 minute ischemia was performed on control rats and rats which have been treated with active compounds of the invention (bilobalides) for 14 days. The ischemia is performed by decapitation. The rats were treated per os with bilobalide doses of 10 mg/kg for 14 days. When the RCR is measured in the presence of glutamate/malate in the case of a 15 minute ischemia, an RCR of 3 is observed in the case of the controls, with an RCR of 3.9 being observed in the case of the treated rats. The active compound therefore has a protective action on the decrease in respiratory activity which is induced by the ischemia. This protection is manifested through the activity of complex I and of the mitochondrial transport chain. The level of respiratory control which is measured in the presence of glutamate/malate indirectly mirrors the activity of complex I of the electron transfer chain.

For assay [7], the system named is mitochondrial complex I. The assay can be described thus: Activity of mitochondrial complex I (ferricytochrome C reduction) in brain mitochondria of treated rats. Type of assay: in vivo, rat. Conditions: 10 mg/kg per os for 14 days; after 15 minute ischemia of the brain; controls 36. On the procedure: The measurement carried out on the mitochondrial complex I was performed by first of all sonicating the mitochondria in order to enable the assay substrates to gain access to the complex I. The latter is assayed by following the reduction of ferricytochrome C at 550 nm. The mitochondrial suspension, which is present in a […] K phosphate buffer, pH 7.4, containing MgCl2, 10 μm of cytochrome C and 2.5 mg of bovine albumin/ml, is sonicated for 30 seconds at 0° C. 2 mM of KCW [sic] is added and the reaction is started by adding 7.5 mM NADH. The mitochondria are incubated at 37° C. and the reduction of the ferricyanide [sic] is followed at 550 nm. A correction is made for the reduction of the cytochrome C in the presence of rotenone, which inhibits complex I. The results are expressed in μmol of ferricytochrome C reduced per minute.
The activity of complex I was measured on the mitochondria of rats which had been treated per os for 14 days with 10 mg of bilobalide/kg, and after a 15minute ischemia of the brain. An activity of 36 mU/mg of protein is obtained in the case of the control rats, whereas the mitochondria from treated rats have an activity of 44 mU/mg of protein.

Assay [8] relates to liver mitochondria. Kind of assay: RCR of liver mitochondria of rats treated per os. It is filed as in vivo. Conditions: rat liver mitochondria; 8 mg/kg per os for 14 days; controls 7.6. On the procedure: as §2

For aescin, in assay [1], the “way in which the RCR is increased (class I / class II)” value is listed as “increase the RCR by decreasing stage 4 of respiration”.
Same read-out and setting: the result for `COc1ccc(-c2cc(=O)c3c(O)cc(O[C@@H]4O[C@H](CO[C@@H]5O[C@@H](C)[C@H](O)[C@@H](O)[C@H]5O)[C@@H](O)[C@H](O)[C@H]4O)cc3o2)cc1O` [diosmin] reads “increase the RCR by decreasing stage 4 of respiration”.
Turning to `CC(C)(C)[C@]1(O)CC2OC(=O)CC23C(=O)OC2OC(=O)[C@H](O)C231` (stereo partly drawn) [Bilobalide, bilobalide], the RCR in assay [2] turned out to be 5.24; in assay [3] (rat brain mitochondria, 8 and 10 mg/kg orally for 14 days, glutamate/malate, controls 3.7) it was 4.6; in assay [6], 3.9; in assay [8], 13.25. Also, in assay [1], the “Protective effect on the RCR (%)” value is given as “+22.7%”. Further, in assay [1], the “way in which the RCR is increased (class I / class II)” value is given as “increase the RCR by decreasing stage 4 of respiration”. Besides, the “maximum increase of the RCR” value in assay [3] (10 mg/kg orally for 14 days, versus controls) was determined as 24%. In assay [4], the “Protection of complex I (%)” value was determined as 27.5%. In addition, the “Protection of complex III (%)” value in assay [5] is recorded as 47.9%. Further, the “activity of complex I” value in assay [7] was 44 mU/mg of protein.
With “o-(hydroxyethyl) rutosides [hydroxyethylrutosides]”, the “way in which the RCR is increased (class I / class II)” value in assay [1] is reported as “increase the RCR by increasing stage 3 of respiration”.
As to `CCC1(CCC(C)C)C(=O)NC(=O)NC1=O` [Amytal], the “inhibition of complex I of the mitochondria” value in assay [4] (0.5 mM Amytal) worked out at 58%.
For the molecule `O=C1C=CC(=O)c2ccccc21` [Naphthoquinone, Nafthoquinone], in assay [1], the “Protective effect on the RCR (%)” value was “+19.7%” and the “way in which the RCR is increased (class I / class II)” value was “increase the RCR by decreasing stage 4 of respiration”. Further, in assay [4], the “Protection of complex I (%)” value came to 14.1%. For the same molecule, the “Protection of complex III (%)” value in assay [5] was 46.6%.
